# Measurements as given in patent US10370333B2 (Sanford Burnham Prebys Medical Discovery Institute, priority 2012, dated 2019).
# Molecular target: TNAP (Homo sapiens (Human), UniProt P05186)
# Test: TNAP (PPi) inhibition assay, pyrophosphate as substrate
# Assay type: biochemical
# Procedure: Expression plasmids containing a secreted epitope-tagged TNAP were transfected into COS-1 cells for transient expression. The medium was replaced with Opti-MEM 24 h later and serum-free media containing secreted proteins was collected 60 hours after electroporation. The medium was dialyzed against TBS containing 1 mM MgCl2 and […] (to remove phosphate) and filtered through a […] cellulose acetate filter.
# To determine the inhibition selectivity for inhibitor candidates, human TNAP, PLAP or IAP were added to microtiter plates followed by addition of the substrate pNPP (0.5 mM) and activity was measured in 1 M DEA-HCl buffer, pH 9.8 or in 1 M Tris-HCl buffer, pH 7.5, containing 1 mM MgCl2 and 20 μM ZnCl2, in the presence of potential inhibitors (0-30 μM). TNAP, PLAP and IAP activities were adjusted to an approximate λA405 nm, equivalent to 1, measured after 30 min. Residual AP activity in the presence of inhibitors was expressed as percentage of the control activity. To investigate the mechanism of inhibition, double reciprocal plots of enzyme activity (expressed as mA405 nm min−1) vs. substrate concentration were constructed, in the presence of various concentrations of added inhibitors (0-30 μM). The y-axis intercepts of the 1/v vs. 1/[S] plots, were then plotted vs. [I] to graphically extract Ki values as the x-intercept in this plot. […] Inhibitors were further tested and sorted based on their kinetic properties at pH 7.4 using PPi, the relevant natural substrate of TNAP. […] Amounts of released phosphate were measured using the Biomol Green Reagent (Biomol Research Laboratories, Inc., Plymouth Meeting, Pa.).
row,SMILES,IC50 [nM]
1,"O=C(OC1CCCCC1)c1cncc(NS(=O)(=O)c2cc(Cl)ccc2OC(F)(F)F)c1 [Example XII-3, Cyclohexyl 5-(5-chloro-2-(trifluoromethoxy)phenylsulfonamido)nicotinate]",< 100
2,"COc1ccc(Cl)cc1S(=O)(=O)Nc1cncc(-c2ccc(F)cc2)c1 [Example III-18, 5-Chloro-N-[5-(4-fluoro-phenyl)-pyridin-3-yl]-2-methoxy-benzenesulfonamide]",< 100
3,"O=S(=O)(Nc1cncc(-c2ccc(OC(F)(F)F)cc2)c1)c1cc(Cl)ccc1OC(F)(F)F [Example XI-3, 5-Chloro-2-(trifluoromethoxy)-N-(5-(4-(trifluoromethoxy)phenyl)pyridin-3-yl)benzenesulfonamide]",100 to 1000
4,"O=S(=O)(Nc1cncc(-c2ccccn2)c1)c1cc(Br)ccc1OC(F)(F)F [Example XI-18, N-([2,3′-Bipyridin]-5′-yl)-5-bromo-2-(trifluoromethoxy)benzenesulfonamide]",100 to 1000
5,"CNc1ccc(NS(=O)(=O)c2cc(Br)ccc2OC)cn1 [Example VIII-5, 5-Bromo-2-methoxy-N-(6-methylamino-pyridin-3-yl)-benzenesulfonamide]",100 to 1000
6,"COc1ccc(Cl)cc1S(=O)(=O)Nc1cncc(-c2ccccc2Cl)c1 [Example III-42, 5-Chloro-N-[5-(2-chloro-phenyl)-pyridin-3-yl]-2-methoxy-benzenesulfonamide]",< 100
7,"COc1ccc(Br)cc1S(=O)(=O)Nc1cnc2ccc(C(N)=O)cc2c1 [Example IX-6, 3-(5-Bromo-2-methoxy-benzenesulfonylamino)-quinoline-6-carboxylic Acid Amide]",< 100
8,"COc1ccc(OC)c(S(=O)(=O)Nc2cncc(-c3cccs3)c2)c1 [Example III-73, 2,5-Dimethoxy-N-(5-(thiophen-2-yl)pyridin-3-yl)benzenesulfonamide]",< 100
9,"COC(=O)c1cncc(NS(=O)(=O)c2cc(Br)ccc2OC(F)(F)F)c1 [Example XII-9, Methyl 5-(5-bromo-2-(trifluoromethoxy)phenylsulfonamido)nicotinate]",100 to 1000
10,"CCCOC(=O)c1cncc(NS(=O)(=O)c2cc(OC)ccc2OC)c1 [Example IV-13, Propyl 5-(2,5-dimethoxyphenylsulfonamido)nicotinate]",< 100
11,"O=S(=O)(Nc1cncc(-c2ccccn2)c1)c1cc(Cl)ccc1OC(F)(F)F [Example XI-17, N-([2,3′-Bipyridin]-5′-yl)-5-chloro-2-(trifluoromethoxy)benzenesulfonamide]",100 to 1000
12,COc1ccc(OC)c(S(=O)(=O)Nc2ccc(Nc3ccccc3)nc2)c1,> 1000
13,"COc1ccc(Cl)cc1S(=O)(=O)Nc1cncc(-c2ccco2)c1 [Example III-69, 5-Chloro-N-(5-(furan-2-yl)pyridin-3-yl)-2-methoxybenzenesulfonamide]",< 100
14,"COc1ccc(OC)c(S(=O)(=O)Nc2cncc(-c3ccc(O)cc3)c2)c1 [Example III-7, N-[5-(4-Hydroxy-phenyl)-pyridin-3-yl]-2,5-dimethoxy-benzenesulfonamide]",< 100
15,"O=S(=O)(Nc1cncc(-c2ccc(F)cc2)c1)c1cc(Br)ccc1OC(F)(F)F [Example XI-9, 5-Bromo-N-(5-(4-fluorophenyl)pyridin-3-yl)-2-(trifluoromethoxy)benzenesulfonamide]",100 to 1000
16,"COc1ccc(-c2cncc(NS(=O)(=O)c3cc(Cl)ccc3OC(F)(F)F)c2)cc1 [Example XI-1, 5-chloro-N-[5-(4-methoxy-phenyl)-pyridin-3-yl]-2-trifluoromethoxy-benzenesulfonamide]",< 100
17,"COc1ccc(OC)c(S(=O)(=O)Nc2cncc(-c3ccc(OCc4ccccc4)cc3)c2)c1 [Example III-4, N-(5-(4-(Benzyloxy)phenyl)pyridin-3-yl)-2,5-dimethoxybenzenesulfonamide]",100 to 1000
18,"COc1ccc(OC)c(S(=O)(=O)Nc2cncc(-c3ccccc3OC)c2)c1 [Example III-34, 2,5-Dimethoxy-N-[5-(2-methoxy-phenyl)-pyridin-3-yl]-benzenesulfonamide]",100 to 1000
19,"COc1ccc(OC)c(S(=O)(=O)Nc2nnc(C)s2)c1 [Example V-18, 2,5-Dimethoxy-N-(5-methyl-[1,3,4]thiadiazol-2-yl)-benzenesulfonamide]",> 1000
20,"COc1ccc(Br)cc1S(=O)(=O)Nc1ncco1 [Example V-3, 5-Bromo-2-methoxy-N-oxazol-2-yl-benzenesulfonamide]",> 1000
21,"COc1ccc(C(=O)NC2CCCCC2)cc1S(=O)(=O)Nc1cnc2ccccc2c1 [Example II-19, N-Cyclohexyl-4-methoxy-3-(quinolin-3-ylsulfamoyl)-benzamide]",> 1000

row,SMILES,IC50 [nM]
1,"COc1ccc(S(=O)(=O)Nc2cnc3ccccc3c2)cc1Cl [Example II-11, 3-Chloro-4-methoxy-N-quinolin-3-yl-benzenesulfonamide]",> 1000
2,"COc1ccc(OC)c(S(=O)(=O)Nc2cnc3ccc(C(N)=O)cc3c2)c1 [Example IX-10, 3-(2,5-Dimethoxy-benzenesulfonylamino)-quinoline-6-carboxylic Acid Amide]",100 to 1000
3,"COc1ccc(OC(F)(F)F)cc1S(=O)(=O)Nc1cncc(-c2ccccn2)c1 [Example XI-19, N-([2,3′-Bipyridin]-5′-yl)-2-methoxy-5-(trifluoromethoxy)benzenesulfonamide]",100 to 1000
4,"COc1ccc(OC)c(S(=O)(=O)Nc2cncc(-c3ccc(C#N)cc3)c2)c1 [Example III-31, N-(5-(4-Cyanophenyl)pyridin-3-yl)-2,5-dimethoxybenzenesulfonamide]",< 100
5,"COc1ccc(Br)cc1S(=O)(=O)Nc1cncc(-c2cscn2)c1 [Example III-86, 5-Bromo-2-methoxy-N-(5-(thiazol-4-yl)pyridin-3-yl)benzenesulfonamide]",< 100
6,"COc1ccc(Br)cc1S(=O)(=O)Nc1cncc(-c2ccc(Cl)cc2)c1 [Example III-20, 5-Bromo-N-[5-(4-chloro-phenyl)-pyridin-3-yl]-2-methoxy-benzenesulfonamide]",100 to 1000
7,"COc1ccc(Br)cc1S(=O)(=O)Nc1ccc(NCCN(C)C)nc1 [Example VIII-13, 5-Bromo-N-(6-((2-(dimethylamino)ethyl)amino)pyridin-3-yl)-2-methoxybenzenesulfonamide]",> 1000
8,"COc1ccc(C(=O)NC2CCCCC2)cc1S(=O)(=O)Nc1cccnc1 [Example I-20, N-Cyclohexyl-4-methoxy-3-(pyridin-3-ylsulfamoyl)-benzamide]",> 1000
9,"COCCCN(c1cnc2ccccc2c1)S(=O)(=O)c1cc(OC)ccc1OC [Example VII-18, 2,5-Dimethoxy-N-(3-methoxypropyl)-N-(quinolin-3-yl)benzenesulfonamide]",> 1000
10,"COC(=O)c1cncc(N(C)S(=O)(=O)c2cc(OC)ccc2OC(F)(F)F)c1 [Example XII-23, 5-[(5-Methoxy-2-trifluoromethoxy-benzenesulfonyl)-methyl-amino]-nicotinic Acid Methyl Ester]",> 1000
11,"COc1ccc(-c2ccoc2)cc1S(=O)(=O)Nc1cnc2ccccc2c1 [Example II-7, 5-Furan-3-yl-2-methoxy-N-quinolin-3-yl-benzenesulfonamide]",100 to 1000
12,"Cc1ccc(OC(F)(F)F)c(S(=O)(=O)Nc2cnc3ccccc3c2)c1 [Example X-4, 5-Methyl-N-quinolin-3-yl-2-trifluoromethoxy-benzenesulfonamide]",< 100
13,"COc1ccc(OC(F)(F)F)cc1S(=O)(=O)Nc1cncc(C(=O)Oc2ccccc2)c1 [Example XII-18, Phenyl 5-(2-methoxy-5-(trifluoromethoxy)phenylsulfonamido)nicotinate]",< 100
14,"COCCNc1ccc(NS(=O)(=O)c2cc(OC)ccc2OC)cn1 [Example VIII-12, 2,5-Dimethoxy-N-(6-((2-methoxyethyl)amino)pyridin-3-yl)benzenesulfonamide]",> 1000
15,"COc1ccc(OC)c(S(=O)(=O)Nc2cncc(C(=O)OC3CCCCC3)c2)c1 [Example IV-14, Cyclohexyl 5-(2,5-dimethoxyphenylsulfonamido)nicotinate]",< 100
16,"COc1ccc(Br)cc1S(=O)(=O)Nc1ccc(Nc2ccccc2)nc1 [Example VIII-15, 5-Bromo-2-methoxy-N-(6-(phenylamino)pyridin-3-yl)benzenesulfonamide]",> 1000
17,"CNC(=O)c1cncc(NS(=O)(=O)c2cc(OC)ccc2OC)c1 [Example IV-37, 5-(2,5-Dimethoxyphenylsulfonamido)-N-methylnicotinamide]",100 to 1000
18,"COc1ccc(OC)c(S(=O)(=O)Nc2cncc(-c3ncccn3)c2)c1 [Example III-91, 2,5-Dimethoxy-N-(5-(pyrimidin-2-yl)pyridin-3-yl)benzenesulfonamide]",100 to 1000
19,"COc1ccc(OC)c(S(=O)(=O)Nc2cnccn2)c1 [Example V-23, 2,5-Dimethoxy-N-pyrazin-2-yl-benzenesulfonamide]",> 1000
20,"CCN(c1cnc2ccccc2c1)S(=O)(=O)c1cc(OC)ccc1OC [Example VII-13, 2,5-Dimethoxy-N-ethyl-N-(quinolin-3-yl)benzenesulfonamide]",> 1000
